# Laboratory results taken from US6147077A, “2R,4S-hydroxyitraconazole isomers” (priority 1999, dated 2000).
# Where two headings read alike, the source gives them in different places.
# Assays:
# Cr. neoformens = experiment: Antifungal MIC, Cr. neoformens; format: cell-based, Cryptococcus neoformens; conditions: for MIC: Cryptococcus
# Protocol: [The source words this procedure for another organism and reports this organism under the same test.] (§1) A 10 mL tube containing 4 mL of Sabourauds dextrose broth was inoculated with 1 colony of Candida albicans picked from a plate of pure culture. The strain was ordered from the American Type Culture Collection (ATCC). The organism was grown for 4 hours at 30° C. while shaking at 150 RPM. While the organism was growing, samples of hydroxy-itraconazoles were solubilized to a concentration of 10 mg/mL in DMSO. Each sample was then diluted 1:10 to make 1 mg/mL samples or 1000 μg/mL. These samples were then diluted by serial 2-fold dilutions to produce samples now containing 1000, 500, 250, 125, 62.5, 31.25, 15.6 μg/mL. […] At 4 hours of growth time the Candida albicans was diluted to a 0.5 McFarland standard representing about 10^5 -10^6 cells/mL and 1 μL of this inoculum placed into each test well of the microtiter dish. The dish was then covered and incubated at 30° C. for 16 hours.
# [1] = Hydrolysis of phosphate esters in porcine brain; format: in vitro ADME; conditions: both free acid and bis(N-methylglucamine) salt
# Protocol: (§2) The phosphate analogs of the isomers with the largest IC50 /MIC ratios, 1, 2 and 3+4 were further investigated for hydrolysis in plasma and tissues. […] The A% conversion (as determined by HPLC A% analysis) of the phosphate ester to the hydroxy compound was determined in three systems: human plasma, equine pancreas and porcine brain. […] Hydrolysis proceeded to >10% overnight at 37° C. in pancreas and brain, and 3% in human plasma. The hydrolyses of the three phosphates of 1, 2 and 3+4 were also studied in various rat tissues and plasma. In all cases, the jejunum and liver gave the greatest conversion to hydroxyitraconazole, ranging from 20% to 40% for the free acids.
# S. cerevisae = experiment: Antifungal MIC, S. cerevisae; format: cell-based, Saccharomyces cerevisiae; conditions: for MIC: Saccharomyces cerevisiae
# Protocol: [The source words this procedure for another organism and reports this organism under the same test.] as §1
# [2] = Hydrolysis of phosphate esters in human plasma; format: in vitro ADME; conditions: both free acid and bis(N-methylglucamine) salt
# Protocol: as §2
# Candida albicans = experiment: Antifungal MIC, Candida albicans; format: cell-based
# Protocol: as §1
# [3] = Hydrolysis of phosphate esters in equine pancreas; format: in vitro ADME; conditions: both free acid and bis(N-methylglucamine) salt
# Protocol: as §2
# [4] = Water solubility of hydroxyitraconazole isomers and itraconazole; format: physicochemical; conditions: for solubility: water; for solubility / Water solubility: LOD: 5000 μV*sec, order-of-magnitude accuracy below LOD, 3+4 and 11+12 ±10%; for Area: λmax = 260 nm, LOD 5000 μV*sec
# Protocol: The isomers of cis hydroxyitraconazole were tested for water solubility against a […] standard solution of hydroxyitraconazole. […] The values for 3+4 and 11+12 are barely above the LOD, giving accuracies of ±10%. In every case, solubilities were in the 10^1 to 10^2 ng/ml range.
# Sacchromyces cerevisae = experiment: Kirby-Bauer Testing, Saccharomyces cerevisiae; format: cell-based; conditions: 10 μl of 10 mg/mL per disk, 30° C., 16 hours; for zone of inhibition at 10000 µg/mL: Saccharomyces cerevisiae
# Protocol: The hydroxyitraconazole isomers were tested for biological activity according three different assays.
# Actively growing cultures of Candida albicans, Cryptococcus neoformens and Saccharomyces cerevisiae were prepared as described above. The cultures were diluted to a 0.5 McFarland standard and swabbed onto a 150 mm Sabouraud Dextrose agar plates. Paper disks (7 mm) were placed onto the agar plates using a disk dispenser. […] The plates were then incubated at 30° C. for 16 hours. Zones of inhibition were then measured in mm.
# A. fumigatis = experiment: Antifungal MIC, A. fumigatis; format: cell-based; conditions: A. fumigatis (Table 3)
# Protocol: [The source words this procedure for another organism and reports this organism under the same test.] as §1
# cytochrome P450 3A4 [5] = target: T1, cytochrome P450 3A4 (Homo sapiens, UniProt P08684); experiment: Inhibition of cytochrome P450 3A4 (testosterone 6β-hydroxylase activity); conditions: for IC50/MIC ratio in words: therapeutic index, 3A4 vs C. albicans 44203
# Protocol: (§3) The IC50 values were determined by the appearance of 6β-hydroxytestosterone after incubation with testosterone. […] Of greater clinical significance is the ratio of the IC50 for 3A4 to the MIC for C. albicans 44203.
# cytochrome P450 3A4 [6] = target: T1, cytochrome P450 3A4
# Protocol: as §3
# delayed rectifier (IK) = conditions: cited from earlier work; for Effect on cardiac repolarization: Torsades de Pointes side effect
# [7] = Water solubility of hydroxyitraconazole phosphate isomers (NMG salts); format: physicochemical; conditions: Table 8; for solubility: water
# From the text: The water solubility of the NMG salts of the phosphate esters of isomers 1, 2 and 3+4 were investigated and compared to the corresponding hydroxyitraconazole isomers 1, 2 and 3+4. The phosphate esters were as much as 10^7 times more water soluble than the corresponding hydroxyitraconazole isomer.
# [8] = Candida albicans, C. albicans (Table 7, esters), read-out: Antifungal MIC
# [9] = Candida albicans, C. albicans strain 28516 (Table 3), read-out: Antifungal MIC
# [10] = Candida albicans, C. albicans strain 28815 (Table 3), read-out: Antifungal MIC
# [11] = Candida albicans, C. albicans strain 44203 (Table 3), read-out: Antifungal MIC
# [12] = Candida albicans, C. albicans strain 44373 (Table 3), read-out: Antifungal MIC
# [13] = Candida albicans, Candida albicans strain 44203 (Table 4), read-out: MIC
# T1 sequence (P08684 whole entry): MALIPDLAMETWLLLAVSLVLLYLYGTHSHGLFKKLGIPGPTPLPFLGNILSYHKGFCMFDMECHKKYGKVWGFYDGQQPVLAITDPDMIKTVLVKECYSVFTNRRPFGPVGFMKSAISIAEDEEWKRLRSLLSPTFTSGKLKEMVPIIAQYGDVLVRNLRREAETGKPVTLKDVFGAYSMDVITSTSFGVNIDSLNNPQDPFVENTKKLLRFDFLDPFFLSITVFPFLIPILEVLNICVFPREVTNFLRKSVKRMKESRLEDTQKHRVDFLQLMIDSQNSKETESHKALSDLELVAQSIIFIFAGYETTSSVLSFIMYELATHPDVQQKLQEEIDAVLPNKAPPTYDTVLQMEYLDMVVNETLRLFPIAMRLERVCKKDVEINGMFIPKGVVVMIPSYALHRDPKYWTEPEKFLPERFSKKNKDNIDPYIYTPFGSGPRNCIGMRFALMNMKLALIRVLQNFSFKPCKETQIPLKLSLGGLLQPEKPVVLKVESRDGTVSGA
compound,measurement,setting,value
C[C@H](OP(=O)(O)O)[C@@H](C)n1ncn(-c2ccc(N3CCN(c4ccc(OC[C@H]5CO[C@](Cn6cncn6)(c6ccc(Cl)cc6Cl)O5)cc4)CC3)cc2)c1=O [Compound 2-phosphate],MIC,"Cr. neoformens; Cr. neoformens (Table 7, esters)",12.5 µg/mL
same,Ease of hydrolysis of phosphate ester,[1],most readily hydrolyzed compound in all three systems
same,MIC,"S. cerevisae; S. cerevisae (Table 7, esters)",12.5 µg/mL
same,Ease of hydrolysis of phosphate ester,[2],most readily hydrolyzed compound in all three systems
same,MIC,Candida albicans; [8],12.5 µg/mL
same,Ease of hydrolysis of phosphate ester,[3],most readily hydrolyzed compound in all three systems
CC(O)C(C)n1ncn(-c2ccc(N3CCN(c4ccc(OC[C@@H]5CO[C@@](Cn6cncn6)(c6ccc(Cl)cc6Cl)O5)cc4)CC3)cc2)c1=O (stereo partly shown) [11 + 12],MIC,Cr. neoformens; Cr. neoformens (Table 3),0.78 µg/mL
same,solubility,[4],0.59 µg/mL
same,zone of inhibition at 10000 µg/mL,Sacchromyces cerevisae,25 mm
same,MIC,S. cerevisae; S. cerevisae (Table 3),0.195 µg/mL
same,MIC,A. fumigatis,0.137 µg/mL
same,MIC,"Candida albicans; Candida albicans, C. albicans strain 10231 (Table 3), read-out: Antifungal MIC",1 µg/mL
same,MIC,Candida albicans; [9],0.25 µg/mL
same,MIC,Candida albicans; [10],0.125 µg/mL
same,MIC,Candida albicans; [11],0.05 µg/mL
same,MIC,Candida albicans; [12],0.5 µg/mL
same,MIC,"Candida albicans; Candida albicans, C. albicans strain 62342 (Table 3), read-out: Antifungal MIC",0.5 µg/mL
same,MIC,Candida albicans; [13],0.05 µg/mL
same,selectivity ratio,cytochrome P450 3A4 [5],6.5
"CC[C@@H](C)n1ncn(-c2ccc(N3CCN(c4ccc(OC[C@@H]5CO[C@@](Cn6cncn6)(c6ccc(Cl)cc6Cl)O5)cc4)CC3)cc2)c1=O [Compound 8, reference compound]",MIC,Candida albicans; Candida albicans,< 0.078 µg/mL
CC(O)C(C)n1ncn(-c2ccc(N3CCN(c4ccc(OC[C@H]5CO[C@](Cn6cncn6)(c6ccc(Cl)cc6Cl)O5)cc4)CC3)cc2)c1=O (stereo partly shown) [Compound 3 + 4],IC50/MIC ratio in words,cytochrome P450 3A4 [5],excellent results
same,Inhibition of P450 3A4 in words,cytochrome P450 3A4 [6],"notably less inhibition of the P450 3A4 enzyme than the 2S,4R isomers"
CC(C)NCC(O)c1ccc(NS(C)(=O)=O)cc1 (stereo not shown) [sotalol],Effect on cardiac repolarization,delayed rectifier (IK),prolongation of cardiac repolarization
same,Block of delayed rectifier (IK),delayed rectifier (IK),ability to block a cellular potassium channel called the delayed rectifier (IK)
C[C@H](OS(=O)(=O)O)[C@@H](C)n1ncn(-c2ccc(N3CCN(c4ccc(OC[C@H]5CO[C@](Cn6cncn6)(c6ccc(Cl)cc6Cl)O5)cc4)CC3)cc2)c1=O [Compound 2-sulfate],MIC,Candida albicans; [8],6.25 µg/mL
C[C@@H](OP(=O)(O)O)[C@H](C)n1ncn(-c2ccc(N3CCN(c4ccc(OC[C@H]5CO[C@](Cn6cncn6)(c6ccc(Cl)cc6Cl)O5)cc4)CC3)cc2)c1=O [1-PO3 --NMG2],solubility,[7],> 100000 µg/mL
"CC[C@@H](C)n1ncn(-c2ccc(N3CCN(c4ccc(OC[C@H]5CO[C@](Cn6cncn6)(c6ccc(Cl)cc6Cl)O5)cc4)CC3)cc2)c1=O [Compound 6, reference compound]",MIC,Candida albicans; Candida albicans,0.312 µg/mL
CC(OP(=O)(O)O)C(C)n1ncn(-c2ccc(N3CCN(c4ccc(OC[C@H]5CO[C@](Cn6cncn6)(c6ccc(Cl)cc6Cl)O5)cc4)CC3)cc2)c1=O (stereo partly shown) [3 + 4-PO3 --NMG2],solubility,[7],> 100000 µg/mL
"CC[C@H](C)n1ncn(-c2ccc(N3CCN(c4ccc(OC[C@H]5CO[C@](Cn6cncn6)(c6ccc(Cl)cc6Cl)O5)cc4)CC3)cc2)c1=O [Compound 5, reference compound]",MIC,Candida albicans; Candida albicans,0.312 µg/mL
"(2S,4R)-4-[4-[4-[4-[[2,4-dichlorophenyl)-2-(1H-1,2,4-triazol-1-ylmethyl)-1,3-dioxolan-4-yl]methoxy]phenyl]-1-piperazinyl]-2,4-dihydro-2-[(1S,2R)-(2-hydroxy-1-methylpropyl)]-3H-1,2,4,-triazol-3-one [Compound 2]",Antifungal MIC,Cr. neoformens; Cr. neoformens (Table 3),0.39 µg/mL
same,Water solubility,[7],< 0.01 µg/mL
same,Water solubility,[4],not detected
same,Area,[4],not even detected
same,Kirby-Bauer zone of inhibition,Sacchromyces cerevisae,20 mm
same,Antifungal MIC,S. cerevisae; S. cerevisae (Table 3),0.39 µg/mL
same,Antifungal MIC,A. fumigatis,0.137 µg/mL
same,Antifungal MIC,Candida albicans; C. albicans strain 10231 (Table 3),0.5 µg/mL
same,Antifungal MIC,Candida albicans; C. albicans strain 28516 (Table 3),0.25 µg/mL
same,Antifungal MIC,Candida albicans; C. albicans strain 28815 (Table 3),0.5 µg/mL
same,Antifungal MIC,Candida albicans; C. albicans strain 44203 (Table 3),0.05 µg/mL
same,Antifungal MIC,Candida albicans; C. albicans strain 44373 (Table 3),0.25 µg/mL
same,Antifungal MIC,Candida albicans; C. albicans strain 62342 (Table 3),1.0 µg/mL
same,MIC,Candida albicans; Candida albicans strain 44203 (Table 4),0.05 µg/mL
same,Inhibition of P450 3A4 in words,cytochrome P450 3A4 [5]; testosterone 6β-hydroxylase activity,"notably less inhibition of the P450 3A4 enzyme than the 2S,4R isomers"
same,IC50/MIC ratio in words,cytochrome P450 3A4 [5],excellent results
same,IC50 /MIC Ratio,cytochrome P450 3A4 [6],70
CCC(C)n1ncn(-c2ccc(N3CCN(c4ccc(OC[C@H]5CO[C@](Cn6cncn6)(c6ccc(Cl)cc6Cl)O5)cc4)CC3)cc2)c1=O (stereo partly shown) [5 + 6],MIC,Candida albicans; Candida albicans,0.156 µg/mL
C[C@@H](O)[C@H](C)n1ncn(-c2ccc(N3CCN(c4ccc(OC[C@@H]5CO[C@@](Cn6cncn6)(c6ccc(Cl)cc6Cl)O5)cc4)CC3)cc2)c1=O [Compound 9],MIC,Cr. neoformens; Cr. neoformens (Table 3),0.78 µg/mL
same,solubility,[4],0.045 µg/mL
same,zone of inhibition at 10000 µg/mL,Sacchromyces cerevisae,20 mm
same,MIC,S. cerevisae; S. cerevisae (Table 3),0.195 µg/mL
same,MIC,A. fumigatis,0.137 µg/mL
same,MIC,Candida albicans; [9],0.25 µg/mL
same,MIC,Candida albicans; [10],0.125 µg/mL
same,MIC,Candida albicans; [11],0.05 µg/mL
same,MIC,Candida albicans; [12],0.25 µg/mL
same,MIC,Candida albicans; [13],0.05 µg/mL
same,selectivity ratio,cytochrome P450 3A4 [5],7.4
CC(O)C(C)n1ncn(-c2ccc(N3CCN(c4ccc(OC[C@H]5CO[C@](Cn6cncn6)(c6ccc(Cl)cc6Cl)O5)cc4)CC3)cc2)c1=O (stereo partly shown) [3 + 4],solubility,[7],2 µg/mL
same,solubility,[4],1.97 µg/mL
same,zone of inhibition at 10000 µg/mL,Sacchromyces cerevisae,23 mm
same,MIC,Candida albicans; [13],0.1 µg/mL
same,selectivity ratio,cytochrome P450 3A4 [5],24
CCC(C)n1ncn(-c2ccc(N3CCN(c4ccc(OC[C@@H]5CO[C@@](Cn6cncn6)(c6ccc(Cl)cc6Cl)O5)cc4)CC3)cc2)c1=O (stereo partly shown) [7 + 8],MIC,Candida albicans; Candida albicans,< 0.078 µg/mL
C[C@H](O)[C@@H](C)n1ncn(-c2ccc(N3CCN(c4ccc(OC[C@@H]5CO[C@@](Cn6cncn6)(c6ccc(Cl)cc6Cl)O5)cc4)CC3)cc2)c1=O [Compound 10],MIC,Cr. neoformens; Cr. neoformens (Table 3),0.78 µg/mL
same,Water solubility,[4],not detected
same,Area,[4],not even detected
same,zone of inhibition at 10000 µg/mL,Sacchromyces cerevisae,22 mm
same,MIC,S. cerevisae; S. cerevisae (Table 3),0.195 µg/mL
same,MIC,A. fumigatis,0.137 µg/mL
same,MIC,Candida albicans; [9],0.25 µg/mL
same,MIC,Candida albicans; [10],0.125 µg/mL
same,MIC,Candida albicans; [11],0.025 µg/mL
same,MIC,Candida albicans; [12],0.25 µg/mL
same,MIC,Candida albicans; [13],0.025 µg/mL
same,selectivity ratio,cytochrome P450 3A4 [5],19
C[C@H](OP(=O)(O)O)[C@@H](C)n1ncn(-c2ccc(N3CCN(c4ccc(OC[C@H]5CO[C@](Cn6cncn6)(c6ccc(Cl)cc6Cl)O5)cc4)CC3)cc2)c1=O [2-PO3 --NMG2],solubility,[7],> 100000 µg/mL
"CC[C@H](C)n1ncn(-c2ccc(N3CCN(c4ccc(OC[C@@H]5CO[C@@](Cn6cncn6)(c6ccc(Cl)cc6Cl)O5)cc4)CC3)cc2)c1=O [Compound 7, reference compound]",MIC,Candida albicans; Candida albicans,< 0.078 µg/mL
C=C[C@H]1C[N@@]2CC[C@H]1C[C@@H]2[C@@H](O)c1ccnc2ccc(OC)cc12 [quinidine],Effect on cardiac repolarization,delayed rectifier (IK),prolongation of cardiac repolarization
same,Block of delayed rectifier (IK),delayed rectifier (IK),ability to block a cellular potassium channel called the delayed rectifier (IK)
CCN(CC)CCNC(=O)c1ccc(NC(C)=O)cc1 [acetyl-procainamide],Effect on cardiac repolarization,delayed rectifier (IK),prolongation of cardiac repolarization
same,Block of delayed rectifier (IK),delayed rectifier (IK),ability to block a cellular potassium channel called the delayed rectifier (IK)
